Reference: patent publication US20240408169A1 (priority 2023, published 2024)
Read-outs that look alike come from different tables or passages of the source. *1 amine or outer side, *2 acyl side, *3 side chain or, on linkers, in order; H or OH if unused. Where a SMILES comes first, the peptide text is derived from it. Bridges are numbered along the chain shown (N, C = ends). [ ]: non-standard residue; d: D form. The star is where a group is joined. ξ: configuration not given here. X10 = CC(C)C(=O)N1[C@H]2COC[C@@H]1C=C(c1ccc(Cl)cc1C[C@@H](C(=O)[*:2])N(C)[*:1])C2; X106 = CN([C@@H](Cc1cc(Cl)ccc1-c1ccc(N2CCN(Cc3ccccn3)CC2)cc1)C(=O)[*:2])[*:1]; X38 = CN([C@@H](Cc1cc(Cl)ccc1-c1ccc(N2C[C@H]3COC[C@H]3C2)cc1)C(=O)[*:2])[*:1]; X78 = CN1CCN(C2(c3ccc(-c4ccc(Cl)cc4C[C@@H](C(=O)[*:2])N(C)[*:1])cc3)CC2)CC1; X63 = CC(C)N1CCN(c2ccc(-c3ccc(Cl)cc3C[C@@H](C(=O)[*:2])N(C)[*:1])cc2F)CC1; X160 = CC(=O)N1CC=C(c2ccc(Cl)cc2C[C@@H](C(=O)[*:2])N(C)[*:1])C(C)(C)C1; X23 = CCN([C@@H](Cc1cc(Cl)ccc1-c1ccc(N2CCN(C)CC2)cc1)C(=O)[*:2])[*:1]; X18 = CC(=O)N1CCC(=Cc2ccc(Cl)cc2C[C@@H](C(=O)[*:2])N(C)[*:1])CC1; X84 = CC(=O)N1CCC(c2ccc(Cl)cc2C[C@@H](C(=O)[*:2])N(C)[*:1])CC1; X54 = CN([C@@H](Cc1cc(F)ccc1-c1cnn(C2CCC2)c1)C(=O)[*:2])[*:1]; NMehhhLys(Me) = CN([C@@H](CCCCCCCN(C)[*:3])C(=O)[*:2])[*:1]; X2 = CN([C@@H](Cc1cc(Cl)ccc1-c1ccc2ncnn2c1)C(=O)[*:2])[*:1]; X22 = CN([C@@H](Cc1cc(Cl)ccc1-c1cnn(C)c1)C(=O)[*:2])[*:1]; X66 = CN([C@@H](Cc1cc(Cl)ccc1-c1cccnc1)C(=O)[*:2])[*:1]; NMe(hhhLys) = CN([C@@H](CCCCCCCN[*:3])C(=O)[*:2])[*:1]; Oxane2carbonyl(2R-CF3) = O=C([C@@]1(C(F)(F)F)CCCCO1)*; cBuCO(3,3-F2-1-CF3) = O=C(C1(C(F)(F)F)CC(F)(F)C1)*; X25 = CCOc1ncc(Cl)cc1C[C@@H](C(=O)[*:2])N(C)[*:1]; Pro(trans-4-F) = O=C(O)[C@@H]1C[C@@H](F)CN1; Gly(cPr) = N[C@H](C(=O)O)C1CC1; ξGly(cPr) = NC(C(=O)O)C1CC1

Experiments:
[1] = tested on: OVCAR3 cells; assay: MTT proliferation assay, OVCAR3; assay type: cell-based; details: 5 days compound exposure, 1:3 serial dilution starting at 10 μM;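 further: compound given as an 8- or 10-point series, one day after plating, with exposure covering roughly 3-4 cell doublings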
[2] = target: T1, CyclinA2/CDK2 (Homo sapiens, UniProt P20248); assay: Fluorescence Polarization (FP) competitive binding assay, Cyclin A2/Cdk2;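 further: plates equilibrated two hours at room temperature before polarization reading, IC50 fitted from eight-concentration compound titration curves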
T1 construct: purchased CRELUX Protein Services

[3] = tested on: NCI-H1048 cells; assay: MTT proliferation assay, NCI-H1048; assay type: cell-based; details: 5 days compound exposure, 1:3 serial dilution starting at 10 μM;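 further: Dose-response in 96-well plates over 8 or 10 concentration points, with exposure spanning 3-4 cell doublings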
[4] = tested on: WI-38 cells; assay: MTT proliferation assay, WI-38; assay type: cell-based; details: 3 days compound exposure, 1:3 serial dilution starting at 10 μM;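 further: Eight- or ten-point dilution series, with exposure length chosen to span about three to four cell doublings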
[5] = target: T2, CyclinE1/CDK2 (Homo sapiens, UniProt P24864); assay: Fluorescence Polarization (FP) competitive binding assay, Cyclin E1/Cdk2;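 further: readings taken after two-hour equilibration at room temperature in HEPES buffer with NaCl, DTT, NP-40 and BSA, IC50 fitted from eight-concentration serial dilution series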
T2 construct: purchased Eurofins, discovery 14-475

[6] = target: T3, CyclinB1/CDK1 (Homo sapiens, UniProt P14635); assay: Fluorescence Polarization (FP) competitive binding assay, Cyclin B1/Cdk1;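 further: fluorescence polarization read after equilibration at room temperature, with IC50 taken from serially diluted dose-response curves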
T3 construct: purchased Eurofins, discovery 14-450

[7] = 8 nM Cyclin A2/Cdk2, 2 nM FAM probe, average of 2-3 independent experiments, read-out: Cyclin A FP IC50
[8] = 10 nM Cyclin E1/Cdk2, 2 nM FAM probe, average of 2-3 independent experiments, read-out: Cyclin E FP IC50
[9] = 10 nM Cyclin B1/Cdk1, 2 nM FAM probe; average of 2-3 independent experiments; read-out: Cyclin B FP IC50
[10] = read-out: Cyclin B FP IC50; 10 nM Cyclin B1/Cdk1, 2 nM FAM probe; average of 2-3 independent experiments

SMILES	GI50 [1]	IC50 [2, 7]	GI50 [3]	GI50 [4]	IC50 [5, 8]	IC50 [6, 9]	IC50 ([2]; read-out: Cyclin A FP IC50, 8 nM Cyclin A2/Cdk2, 2 nM FAM probe, average of 2-3 independent experiments)	IC50 [5]	IC50 [6, 10]	IC50 [2]
CC(=O)N1CCC(=Cc2ccc(Cl)cc2C[C@H]2C(=O)N(C)CCCCCCC[C@H](N(C)C(=O)[C@@H](NC(=O)[C@@H]3C[C@@H](F)CN3C(=O)C3(C(F)(F)F)CC(F)(F)C3)C3CC3)C(=O)N[C@@H](CC(C)C)C(=O)N2C)CC1 [Example 289] ({cBuCO(3,3-F2-1-CF3)}-[Pro(trans-4-F)][Gly(cPr)][NMehhhLys(Me)]L[X18]; lactam 3-C)	10 nM	30 nM	10 nM	3.78 µM	320 nM	20 nM				
CC(C)C[C@@H]1NC(=O)[C@@H](N(C)C(=O)[C@@H](NC(=O)[C@@H]2C[C@@H](F)CN2C(=O)C2(C(F)(F)F)CC(F)(F)C2)C2CC2)CCCCCCCN(C)C(=O)[C@H](Cc2cc(Cl)ccc2-c2ccc(N3C[C@H]4COC[C@H]4C3)cc2)N(C)C1=O [Example 363] ({cBuCO(3,3-F2-1-CF3)}-[Pro(trans-4-F)][Gly(cPr)][NMehhhLys(Me)]L[X38]; lactam 3-C)	10 nM	20 nM	10 nM	1.43 µM	470 nM	20 nM				
CC(C)C[C@@H]1NC(=O)[C@@H](N(C)C(=O)[C@@H](NC(=O)[C@@H]2C[C@@H](F)CN2C(=O)C2(C(F)(F)F)CC(F)(F)C2)C2CC2)CCCCCCCN(C)C(=O)[C@H](Cc2cc(Cl)ccc2-c2ccc(N3CCN(Cc4ccccn4)CC3)cc2)N(C)C1=O [Example 368] ({cBuCO(3,3-F2-1-CF3)}-[Pro(trans-4-F)][Gly(cPr)][NMehhhLys(Me)]L[X106]; lactam 3-C)	10 nM	20 nM	10 nM	15.2 µM	480 nM	20 nM				
CC(C)C[C@@H]1NC(=O)[C@@H](N(C)C(=O)[C@@H](NC(=O)[C@@H]2C[C@@H](F)CN2C(=O)C2(C(F)(F)F)CC(F)(F)C2)C2CC2)CCCCCCCN(C)C(=O)[C@H](Cc2cc(Cl)ccc2-c2ccc(C3(N4CCN(C)CC4)CC3)cc2)N(C)C1=O [Example 381] ({cBuCO(3,3-F2-1-CF3)}-[Pro(trans-4-F)][Gly(cPr)][NMehhhLys(Me)]L[X78]; lactam 3-C)	40 nM	20 nM	20 nM	2.3 µM	1310 nM	20 nM				
CC(C)C[C@@H]1NC(=O)[C@@H](N(C)C(=O)[C@@H](NC(=O)[C@@H]2C[C@@H](F)CN2C(=O)[C@@]2(C(F)(F)F)CCCCO2)C2CC2)CCCCCCCN(C)C(=O)[C@H](Cc2cc(Cl)ccc2-c2cnn(C)c2)N(C)C1=O [Example 184] ({Oxane2carbonyl(2R-CF3)}-[Pro(trans-4-F)][Gly(cPr)][NMehhhLys(Me)]L[X22]; lactam 3-C)	10 nM	20 nM	10 nM	3.65 µM	100 nM	20 nM				
CC(C)C[C@@H]1NC(=O)[C@@H](N(C)C(=O)[C@@H](NC(=O)[C@@H]2C[C@@H](F)CN2C(=O)C2(C(F)(F)F)CCC2)C2CC2)C/C=C\CCCCN(C)C(=O)[C@H](Cc2cc(Cl)ccc2-c2cnn(C)c2)N(C)C1=O [Example 173]	10 nM	20 nM	10 nM	12.7 µM	100 nM	20 nM				
CC(C)C[C@@H]1NC(=O)[C@@H](N(C)C(=O)[C@@H](NC(=O)[C@@H]2C[C@@H](F)CN2C(=O)C2(C(F)(F)F)CC(F)(F)C2)C2CC2)CCCCCCCNC(=O)[C@H](Cc2cc(Cl)ccc2-c2cccnc2)N(C)C1=O [Example 276] ({cBuCO(3,3-F2-1-CF3)}-[Pro(trans-4-F)][Gly(cPr)][NMe(hhhLys)]L[X66]; lactam 3-C)	20 nM	30 nM	20 nM	23.4 µM	700 nM	20 nM				
CC(C)C[C@@H]1NC(=O)[C@@H](N(C)C(=O)[C@@H](NC(=O)[C@@H]2C[C@@H](F)CN2C(=O)C2(C(F)(F)F)CC(F)(F)C2)C2CC2)CCCCCCCN(C)C(=O)[C@H](Cc2cc(F)ccc2-c2cnn(C3CCC3)c2)N(C)C1=O [Example 96] ({cBuCO(3,3-F2-1-CF3)}-[Pro(trans-4-F)][Gly(cPr)][NMehhhLys(Me)]L[X54]; lactam 3-C)	10 nM	20 nM	10 nM	8.92 µM	120 nM	20 nM				
CCN1C(=O)[C@H](CC(C)C)NC(=O)[C@@H](N(C)C(=O)[C@@H](NC(=O)[C@@H]2C[C@@H](F)CN2C(=O)C2(C(F)(F)F)CC(F)(F)C2)C2CC2)CCCCCCCN(C)C(=O)[C@@H]1Cc1cc(Cl)ccc1-c1ccc(N2CCN(C)CC2)cc1 [Example 405] ({cBuCO(3,3-F2-1-CF3)}-[Pro(trans-4-F)][Gly(cPr)][NMehhhLys(Me)]L[X23]; lactam 3-C)	50 nM	50 nM	40 nM	2.16 µM	2560 nM	20 nM				
CC(C)C[C@@H]1NC(=O)[C@@H](N(C)C(=O)[C@@H](NC(=O)[C@@H]2C[C@@H](F)CN2C(=O)C2(C(F)(F)F)CCC2)C2CC2)CC=CCCCCNC(=O)[C@H](Cc2cc(Cl)ccc2-c2cnn(C3COC3)c2)N(C)C1=O [Example 32]	250 nM	50 nM	140 nM	11.8 µM	590 nM	20 nM				
CCOc1ncc(Cl)cc1C[C@H]1C(=O)N(C)CCCCCCC[C@H](N(C)C(=O)[C@@H](NC(=O)[C@@H]2C[C@@H](F)CN2C(=O)[C@@]2(C(F)(F)F)CCCCO2)C2CC2)C(=O)N[C@@H](CC(C)C)C(=O)N1C [Example 226] ({Oxane2carbonyl(2R-CF3)}-[Pro(trans-4-F)][Gly(cPr)][NMehhhLys(Me)]L[X25]; lactam 3-C)	30 nM		20 nM	8.39 µM			20 nM	100 nM	20 nM	
CC(=O)N1CCC(c2ccc(Cl)cc2C[C@H]2C(=O)N(C)CCCCCCC[C@H](N(C)C(=O)[C@@H](NC(=O)[C@@H]3C[C@@H](F)CN3C(=O)C3(C(F)(F)F)CC(F)(F)C3)C3CC3)C(=O)N[C@@H](CC(C)C)C(=O)N2C)CC1 [Example 52] ({cBuCO(3,3-F2-1-CF3)}-[Pro(trans-4-F)][Gly(cPr)][NMehhhLys(Me)]L[X84]; lactam 3-C)	10 nM	40 nM	10 nM	13.1 µM	1130 nM	20 nM				
CC(C)C[C@@H]1NC(=O)[C@@H](N(C)C(=O)[C@@H](NC(=O)[C@@H]2C[C@@H](F)CN2C(=O)C2(C(F)(F)F)CC(F)(F)C2)C2CC2)CCCCCCCN(C)C(=O)[C@H](Cc2cc(Cl)ccc2-c2ccc3ncnn3c2)N(C)C1=O [Example 232] ({cBuCO(3,3-F2-1-CF3)}-[Pro(trans-4-F)][Gly(cPr)][NMehhhLys(Me)]L[X2]; lactam 3-C)	80 nM		50 nM	11.6 µM				2870 nM	20 nM	50 nM
CC(C)C[C@@H]1NC(=O)[C@@H](N(C)C(=O)[C@@H](NC(=O)[C@@H]2C[C@@H](F)CN2C(=O)C2(C(F)(F)F)CC(F)(F)C2)C2CC2)CCCCCCCN(C)C(=O)[C@H](Cc2cc(Cl)ccc2-c2ccc(N3CCN(C(C)C)CC3)c(F)c2)N(C)C1=O [Example 413] ({cBuCO(3,3-F2-1-CF3)}-[Pro(trans-4-F)][Gly(cPr)][NMehhhLys(Me)]L[X63]; lactam 3-C)	10 nM	20 nM	10 nM	1.6 µM	1310 nM	20 nM				
CC(C)C[C@@H]1NC(=O)[C@@H](N(C)C(=O)[C@@H](NC(=O)[C@@H]2C[C@@H](F)CN2C(=O)C2(C(F)(F)F)CC(F)(F)C2)C2CC2)CCCCCCCNC(=O)[C@H](Cc2cc(Cl)ccc2C2=C[C@H]3COC[C@@H](C2)N3C(=O)C(C)C)N(C)C1=O [Example 327] ({cBuCO(3,3-F2-1-CF3)}-[Pro(trans-4-F)][Gly(cPr)][NMe(hhhLys)]L[X10]; lactam 3-C)	10 nM	20 nM	10 nM	83.9 µM	400 nM	20 nM				
CC(=O)N1CC=C(c2ccc(Cl)cc2C[C@H]2C(=O)NCCCCCCC[C@H](N(C)C(=O)C(NC(=O)[C@@H]3C[C@@H](F)CN3C(=O)C3(C(F)(F)F)CC(F)(F)C3)C3CC3)C(=O)N[C@@H](CC(C)C)C(=O)N2C)C(C)(C)C1 (stereo partly drawn) [Example 277] ({cBuCO(3,3-F2-1-CF3)}-[Pro(trans-4-F)][ξGly(cPr)][NMe(hhhLys)]L[X160]; lactam 3-C)	360 nM	600 nM	330 nM	3.82 µM		20 nM				
CC(C)C[C@@H]1NC(=O)[C@@H](N(C)C(=O)[C@@H](NC(=O)[C@@H]2C[C@@H](F)CN2C(=O)C2(C(F)(F)F)CC(F)(F)C2)C2CC2)CC=CCCCCNC(=O)[C@H](Cc2cc(Cl)ccc2C2=CCN(C)CC2)N(C)C1=O (single isomer, unassigned) [Example 56-P2]	430 nM	590 nM	190 nM	3.76 µM		30 nM				
